Test results taken from ChEMBL document CHEMBL3272349, “Quantitative structure-activity relationships of antimalarial and dihydrofolate reductase inhibition by quinazolines and 5-substituted benzyl-2,4-diaminopyrimidines” (J Med Chem, 1977).
Each block holds one compound with its values, some of them ahead of it.

Key:
[1] = system: Plasmodium berghei; assay: Antimalarial activity against Plasmodium berghei infected in po dosed mouse assessed as suppression of parasitemia administered for 6 days; format: functional
[2] = system: Proteus vulgaris; assay: Inhibition of Proteus vulgaris dihydrofolate reductase
[3] = system: Plasmodium berghei; assay: Antimalarial activity against Plasmodium berghei infected in po dosed mouse assessed as suppression of parasitemia; format: functional
[4] = target: T1, Dihydrofolate reductase (Escherichia coli) (UniProt P0ABQ4)
T1 sequence (whole entry): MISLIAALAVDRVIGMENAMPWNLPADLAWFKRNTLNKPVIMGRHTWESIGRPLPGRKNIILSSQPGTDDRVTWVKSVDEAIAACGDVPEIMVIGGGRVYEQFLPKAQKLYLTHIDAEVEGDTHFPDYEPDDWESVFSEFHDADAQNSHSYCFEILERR
Description: Inhibition of Escherichia coli dihydrofolate reductase

[5] = system: Plasmodium berghei; assay: Antimalarial activity against Plasmodium berghei infected in po dosed mouse assessed as suppression of parasitemia administered for 4 days; format: functional
[6] = target: T2, Dihydrofolate reductase (Rattus norvegicus) (UniProt Q920D2)
T2 sequence (whole entry): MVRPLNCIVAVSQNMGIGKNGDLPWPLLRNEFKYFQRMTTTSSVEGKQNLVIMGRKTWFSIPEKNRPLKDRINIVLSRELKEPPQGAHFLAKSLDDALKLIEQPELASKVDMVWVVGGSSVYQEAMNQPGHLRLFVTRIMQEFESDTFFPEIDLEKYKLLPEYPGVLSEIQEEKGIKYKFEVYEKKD
Description: Inhibition of rat liver dihydrofolate reductase

[7] = system: Plasmodium berghei; assay: Antimalarial activity against Plasmodium berghei infected mouse assessed as suppression of parasitemia administered through diet for 6 days; format: functional

Structure (SMILES): Nc1nc(N)c2cc(NCc3ccc(Cl)c(Cl)c3)ccc2n1
log(1/SD90) [1]: 4.59

Structure (SMILES): Nc1nc(N)c2cc(Oc3ccc(Cl)c(Cl)c3)ccc2n1
log(1/SD90) [1]: 4.52

Structure (SMILES): Nc1nc(N)c2cc(OCc3ccc(Cl)cc3)ccc2n1
log(1/SD90) [1]: 4.06

Activity [2]: 0.5 ×10⁻⁸ M
Structure (SMILES): COc1cc(Cc2cnc(N)nc2N)cc(OC)c1OC

Structure (SMILES): Nc1nc(N)c2cc(CNc3ccc(Cl)cc3)ccc2n1
log(1/SD90) [3]: 5.2

log(1/I50) [4]: 7
Structure (SMILES): COc1ccc(Cc2cnc(N)nc2N)cc1OC

Structure (SMILES): Nc1nc(N)c2c(n1)CCN(Cc1c(Cl)cccc1Cl)C2
log(1/SD90) [3]: 4.36

log(1/I50) [4]: 5.64
Structure (SMILES): Cc1ccc(Cc2cnc(N)nc2N)cc1

Structure (SMILES): Nc1nc(N)c2cc(CN(N=O)c3ccc(Cl)c(Cl)c3)ccc2n1
log(1/SD90) [3]: 6.16

log(1/I50) [4]: 6.31
Structure (SMILES): COc1cccc(Cc2cnc(N)nc2N)c1

Structure (SMILES): Nc1nc(N)c2cc(-n3cccc3)ccc2n1
log(1/SD90) [3]: 4.29

log(1/I50) [4]: 5.96
Structure (SMILES): COc1ccc(Cc2cnc(N)nc2N)cc1

Structure (SMILES): Nc1nc(N)c2cc(Oc3cc(C(F)(F)F)cc(C(F)(F)F)c3)ccc2n1
log(1/SD90) [1]: 4.44

Structure (SMILES): Nc1nc(N)c2c(n1)CCN(Cc1cccnc1)C2
log(1/SD90) [3]: 3.88

Structure (SMILES): Nc1nc(N)c2cc(N3CCc4ccccc4C3)ccc2n1
log(1/SD90) [5]: 4.8

Structure (SMILES): Nc1nc(N)c2cc(N(C=O)Cc3ccc(Cl)c(Cl)c3)ccc2n1
log(1/SD90) [3]: 5.24

Structure (SMILES): Nc1nc(N)c2cc(Oc3ccc4cc(Br)ccc4c3Br)ccc2n1
log(1/SD90) [1]: 4.05

Structure (SMILES): Cc1c(CNc2ccc(Cl)c(Cl)c2)ccc2nc(N)nc(N)c12
log(1/SD90) [3]: 6.02

Structure (SMILES): Nc1nc(N)c2c(n1)CCN(Cc1ccc(Cl)c(Cl)c1)C2
log(1/SD90) [3]: 4.92

Structure (SMILES): Nc1nc(N)c2cc(N3CCCC3c3ccccc3)ccc2n1 (configuration not stated)
log(1/SD90) [5]: 5.94

Activity [2]: 10000 ×10⁻⁸ M
Structure (SMILES): CCCCc1ccc(N2C(N)=NC(N)=NC2(C)C)cc1

Structure (SMILES): Nc1nc(N)c2c(n1)CCN(Cc1ccncc1)C2
log(1/SD90) [3]: 3.31

Structure (SMILES): Cc1c(N(C=O)Cc2ccc(Cl)c(Cl)c2)ccc2nc(N)nc(N)c12
log(1/SD90) [3]: 5.69

Structure (SMILES): Nc1nc(N)c2c(n1)CCN(Cc1ccccc1Cl)C2
log(1/SD90) [3]: 3.73

Structure (SMILES): Nc1nc(N)c2c(n1)CCN(Cc1ccc(Cl)cc1)C2
log(1/SD90) [3]: 4.14

log(1/I50) [4]: 5.74
Structure (SMILES): Nc1ncc(Cc2ccc(O)cc2)c(N)n1

Structure (SMILES): Nc1nc(N)c2cc(Oc3ccccc3)ccc2n1
log(1/SD90) [1]: 4.43

Structure (SMILES): Nc1nc(N)c2cc(CNc3ccc(Cl)c(Cl)c3)ccc2n1
log(1/SD90) [3]: 5.56

Structure (SMILES): Cc1ccc(C)n1-c1cc(-n2c(C)ccc2C)c2nc(N)nc(N)c2c1
log(1/SD90) [5]: 4.34

Structure (SMILES): Nc1nc(N)c2cc(N(Cc3ccc(Cl)c(Cl)c3)N=O)ccc2n1
log(1/SD90) [5]: 6.13

Structure (SMILES): Nc1nc(N)c2cc(Oc3ccc4cc(Br)ccc4c3)ccc2n1
log(1/SD90) [1]: 4.09

log(1/I50) [6]: 4.8
Structure (SMILES): Nc1ncc(Cc2ccccc2)c(N)n1

Structure (SMILES): Nc1nc(N)c2cc(Oc3cc(Cl)c(Cl)cc3Cl)ccc2n1
log(1/SD90) [1]: 4.57

Structure (SMILES): CN(C)c1nc(N)c2cc(NCc3ccccc3)ccc2n1
log(1/SD90) [7]: 3.75

Structure (SMILES): Nc1nc(N)c2cc(N3CCC(c4ccccc4)CC3)ccc2n1
log(1/SD90) [5]: 4.3

Structure (SMILES): Nc1nc(N)c2cc(Oc3cc(Cl)cc(Cl)c3)ccc2n1
log(1/SD90) [1]: 4.11

Structure (SMILES): Nc1nc(N)c2c(n1)CCN(Cc1ccc(Cl)cc1Cl)C2
log(1/SD90) [3]: 4.4

Structure (SMILES): Nc1nc(N)c2c(n1)CCN(Cc1ccccc1)C2
log(1/SD90) [3]: 3.65

Structure (SMILES): Cc1c(CN(N=O)c2ccc(Cl)c(Cl)c2)ccc2nc(N)nc(N)c12
log(1/SD90) [3]: 5.52

Structure (SMILES): Cc1c(N(Cc2ccc(Cl)c(Cl)c2)N=O)ccc2nc(N)nc(N)c12
log(1/SD90) [3]: 5.15

log(1/I50) [4]: 5.68
Structure (SMILES): Nc1ncc(Cc2ccc(Cl)cc2)c(N)n1

Structure (SMILES): Nc1nc(N)c2cc(OCc3ccccc3)ccc2n1
log(1/SD90) [1]: 3.18

Structure (SMILES): Cc1c(CNc2ccc(Cl)cc2)ccc2nc(N)nc(N)c12
log(1/SD90) [3]: 6.55

Structure (SMILES): Nc1nc(N)c2cc(NCc3ccc4ccccc4c3Cl)ccc2n1
log(1/SD90) [7]: 4.59

Structure (SMILES): Nc1nc(N)c2cc(Oc3ccc(Cl)c4ccccc34)ccc2n1
log(1/SD90) [1]: 3.57

Structure (SMILES): Nc1nc(N)c2cc(NCc3cccc(Br)c3)ccc2n1
log(1/SD90) [7]: 5.93

log(1/I50) [4]: 7.4
Structure (SMILES): COc1cc(Cc2cnc(N)nc2N)cc(Cl)c1OC
